According to BindingDB's records for PubMed 35227979 (Northwest University, 2022):

Target: Beta-2 adrenergic receptor (Homo sapiens, UniProt P07550)
Assay: Binding affinity to immobilized Halo tag-fused beta2 adrenoceptor (unknown origin) expressed in Escherichia coli BL21 (DE3) assessed as dissociation rate constant by receptor chromatography

Sequence of Beta-2 adrenergic receptor (P07550 whole entry, the tested form may be a part): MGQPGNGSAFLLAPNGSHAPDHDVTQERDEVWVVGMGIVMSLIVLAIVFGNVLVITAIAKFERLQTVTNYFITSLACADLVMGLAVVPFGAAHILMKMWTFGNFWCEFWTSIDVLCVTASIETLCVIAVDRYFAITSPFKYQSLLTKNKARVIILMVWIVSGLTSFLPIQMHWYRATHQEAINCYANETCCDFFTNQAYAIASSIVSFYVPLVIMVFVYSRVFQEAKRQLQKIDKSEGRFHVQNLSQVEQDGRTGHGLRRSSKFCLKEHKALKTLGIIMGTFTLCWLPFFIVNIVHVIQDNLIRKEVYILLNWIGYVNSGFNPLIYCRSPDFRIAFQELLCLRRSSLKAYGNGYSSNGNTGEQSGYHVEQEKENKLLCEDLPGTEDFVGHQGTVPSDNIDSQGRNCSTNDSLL

Row | Compound | Kd
1 | CC1(C)[C@@H](O)CC[C@]2(C)[C@H]3C(=O)C=C4[C@@H]5C[C@@](C)(C(=O)NCCc6ccc(O)cc6)CC[C@]5(C)CC[C@@]4(C)[C@]3(C)CC[C@@H]12 | 7.5 nM
2 | CNC(C)Cc1ccccc1OC (configuration not stated) [Methoxyphenamine] | 0.98 nM
